≈ marks a conversion by molar mass, not a printed value. Calls of active or inactive are those of the source. The calls are words filed in the database; no cut-off is given here.
What was measured:
[1] = tested on: Staphylococcus aureus; assay: Bactericidal activity against Staphylococcus aureus ATCC 25923 incubated for 18 hrs by broth microdilution method; assay type: functional
[2] = tested on: Pseudomonas aeruginosa; assay: Antibacterial activity against Pseudomonas aeruginosa ATCC 27853 incubated for 18 hrs by broth microdilution method; assay type: functional
[3] = tested on: Escherichia coli; assay: Antibacterial activity against Escherichia coli ATCC 25922 incubated for 18 hrs by broth microdilution method; assay type: functional
[4] = tested on: Erythrocyte; assay: Hemolytic activity in mouse erythrocytes assessed as concentration required to cause 10% hemolysis incubated for 1 hr; assay type: toxicity, cell-based
[5] = tested on: Staphylococcus aureus; assay: Antibacterial activity against Staphylococcus aureus ATCC 25923 incubated for 18 hrs by broth microdilution method; assay type: functional
[6] = tested on: Staphylococcus aureus; assay: Antibacterial activity against Staphylococcus aureus at 2 times MIC preincubated for 1 hr with trypsin followed by enzyme inactivation and bacterial addition and measured after 18 hrs; assay type: functional; conditions: time 19 hrs
[7] = tested on: Staphylococcus epidermidis; assay: Antibacterial activity against Staphylococcus epidermidis ATCC 12228 incubated for 18 hrs by broth microdilution method; assay type: functional
[8] = tested on: Staphylococcus epidermidis; assay: Bactericidal activity against Staphylococcus epidermidis ATCC 12228 incubated for 18 hrs by broth microdilution method; assay type: functional
[9] = tested on: Klebsiella pneumoniae; assay: Bactericidal activity against Klebsiella pneumoniae ATCC 700603 incubated for 18 hrs by broth microdilution method; assay type: functional
[10] = tested on: Bacillus subtilis; assay: Bactericidal activity against Bacillus subtilis ATCC 23857 incubated for 18 hrs by broth microdilution method; assay type: functional
[11] = tested on: Pseudomonas aeruginosa; assay: Bactericidal activity against Pseudomonas aeruginosa ATCC 27853 incubated for 18 hrs by broth microdilution method; assay type: functional
[12] = Retention time of the compound; assay type: physicochemical
[13] = tested on: Escherichia coli; assay: Bactericidal activity against Escherichia coli ATCC 25922 incubated for 18 hrs by broth microdilution method; assay type: functional
[14] = tested on: Bacillus subtilis; assay: Antibacterial activity against Bacillus subtilis ATCC 23857 incubated for 18 hrs by broth microdilution method; assay type: functional
[15] = Self-assembly property of compound in PBS assessed as beta-sheet nanofibers formation incubated for 1 hr by Thioflavin T based fluorescence spectrophotometer analysis; assay type: physicochemical; conditions: buffer, dose 0.5-1.5 µM
[16] = tested on: Klebsiella pneumoniae; assay: Antibacterial activity against Klebsiella pneumoniae ATCC 700603 incubated for 18 hrs by broth microdilution method; assay type: functional
[17] = tested on: Staphylococcus aureus; assay: Antibacterial activity against Staphylococcus aureus at 2 times MIC preincubated for 1 hr with chymotrypsin followed by enzyme inactivation and bacterial addition and measured after 18 hrs; assay type: functional; conditions: time 19 hrs
[18] = tested on: Staphylococcus aureus; assay: Antibacterial activity against Staphylococcus aureus infected in BALB/c mouse systemic infection model assessed as reduction in liver bacterial load at 10 mg/kg, ip measured after 8 hrs; assay type: functional, organism-based
[19] = tested on: Escherichia coli; assay: Antibacterial activity against rifampicin resistant Escherichia coli incubated for 18 hrs by broth microdilution method; assay type: functional
[20] = tested on: Staphylococcus aureus; assay: Antibacterial activity against kanamycin resistant Staphylococcus aureus incubated for 18 hrs by broth microdilution method; assay type: functional
[21] = tested on: Escherichia coli; assay: Antibacterial activity against Escherichia coli incubated for 18 hrs by broth microdilution method; assay type: functional
[22] = tested on: Staphylococcus aureus; assay: Antibacterial activity against rifampicin resistant Staphylococcus aureus incubated for 18 hrs by broth microdilution method; assay type: functional
[23] = tested on: Staphylococcus aureus; assay: Antibacterial activity against methicillin resistant Staphylococcus aureus 75 incubated for 18 hrs by broth microdilution method; assay type: functional
[24] = tested on: Staphylococcus aureus; assay: Antibacterial activity against Staphylococcus aureus incubated for 18 hrs by broth microdilution method; assay type: functional
[25] = tested on: Staphylococcus aureus; assay: Antibacterial activity against Staphylococcus aureus infected in BALB/c mouse systemic infection model assessed as reduction in kidney bacterial load at 10 mg/kg, ip measured after 8 hrs; assay type: functional, organism-based
[26] = tested on: Staphylococcus aureus; assay: Antibacterial activity against Staphylococcus aureus infected in BALB/c mouse systemic infection model assessed as reduction in lung bacterial load at 10 mg/kg, ip measured after 8 hrs; assay type: functional, organism-based
[27] = tested on: Staphylococcus aureus; assay: Antibacterial activity against methicillin resistant Staphylococcus aureus 113 incubated for 18 hrs by broth microdilution method; assay type: functional
[28] = tested on: Escherichia coli; assay: Antibacterial activity against kanamycin resistant Escherichia coli incubated for 18 hrs by broth microdilution method; assay type: functional
[29] = tested on: Staphylococcus aureus; assay: Antibacterial activity against Staphylococcus aureus S125 incubated for 18 hrs by broth microdilution method; assay type: functional
[30] = tested on: Staphylococcus aureus; assay: Antibacterial activity against Staphylococcus aureus S794 incubated for 18 hrs by broth microdilution method; assay type: functional
[31] = tested on: Pseudomonas aeruginosa; assay: Drug resistance against Pseudomonas aeruginosa assessed as fold increase in MIC after 40 consecutive days of passages by sequential passaging method; assay type: functional; conditions: time 18 hrs
[32] = tested on: Staphylococcus aureus; assay: Antibacterial activity against Staphylococcus aureus infected in BALB/c mouse systemic infection model assessed as reduction in spleen bacterial load at 10 mg/kg, ip measured after 8 hrs; assay type: functional, organism-based
[33] = tested on: Staphylococcus aureus; assay: Antibacterial activity against methicillin resistant Staphylococcus aureus incubated for 18 hrs by broth microdilution method; assay type: functional
[34] = Self-assembly property of compound in water assessed as beta-sheet content; assay type: physicochemical
[35] = Self-assembly property of compound in PBS assessed as beta-sheet content; assay type: physicochemical; conditions: buffer
[36] = Self-assembly property of compound in 50% TFE assessed as beta-sheet content; assay type: physicochemical

SMILES | MBC [1] [µM] | MIC [2] [µM] | MIC [3] [µM] | MHC [4] [µM] | MIC [5] [µM] | Activity [6] [%] | MIC [7] [µM] | MBC [8] [µM] | MBC [9] [µM] | MBC [10] [µM] | MBC [11] [µM] | Retention_time [12] [min] | MBC [13] [µM] | MIC [14] [µM] | MIC [16] [µM] | Activity [17] [%] | further results
NCCCC[C@@H](NC(=O)[C@H](N)Cc1c[nH]c2ccccc12)C(=O)N[C@H](Cc1c[nH]c2ccccc12)C(=O)N[C@H](CCCCN)C(=O)N[C@H](Cc1c[nH]c2ccccc12)C(=O)NCC(=O)NCC(=O)N[C@H](Cc1c[nH]c2ccccc12)C(=O)N[C@H](CCCCN)C(=O)N[C@H](Cc1c[nH]c2ccccc12)C(=O)N[C@H](CCCCN)C(=O)N[C@H](Cc1c[nH]c2ccccc12)C(N)=O | 4 (≈ 7.04 µg/mL) | 4 (≈ 7.04 µg/mL) | 8 (≈ 14.1 µg/mL) | 66.3 | 4 (≈ 7.04 µg/mL) | 100 | 4 (≈ 7.04 µg/mL) | 4 (≈ 7.04 µg/mL) | 8 (≈ 14.1 µg/mL) | 8 (≈ 14.1 µg/mL) | 32 (≈ 56.4 µg/mL) | 14.321 | 8 (≈ 14.1 µg/mL) | 2 (≈ 3.52 µg/mL) | 8 (≈ 14.1 µg/mL) | 100 | Activity [15]: Not Active
O=C(O)c1cn(C2CC2)c2cc(N3CCNCC3)c(F)cc2c1=O [CIPROFLOXACIN] |  | 2 (≈ 0.663 µg/mL) | < 1 |  | 8 (≈ 2.65 µg/mL) |  | 8 (≈ 2.65 µg/mL) |  |  |  |  |  |  | 2 (≈ 0.663 µg/mL) | 8 (≈ 2.65 µg/mL) |  | Activity [18]: Active; MIC [19]: 0.5 µM (≈ 0.166 µg/mL); MIC [20]: 4 µM (≈ 1.33 µg/mL); MIC [21]: 0.5 µM (≈ 0.166 µg/mL); MIC [22]: 0.5 µM (≈ 0.166 µg/mL); MIC [23]: 256 µM (≈ 84.8 µg/mL); MIC [24]: 8 µM (≈ 2.65 µg/mL); Activity [25]: Active; Activity [26]: Active; MIC [27]: 16 µM (≈ 5.3 µg/mL); MIC [28]: 2 µM (≈ 0.663 µg/mL); MIC [29]: 8 µM (≈ 2.65 µg/mL); MIC [30]: 256 µM (≈ 84.8 µg/mL); fold change (FC) [31]: 128; Activity [32]: inactive; MIC [33]: 256 µM (≈ 84.8 µg/mL)
NCCCC[C@@H](N)C(=O)N[C@H](Cc1c[nH]c2ccccc12)C(=O)N[C@H](CCCCN)C(=O)N[C@H](Cc1c[nH]c2ccccc12)C(=O)N[C@H](CCCCN)C(=O)N1CCC[C@H]1C(=O)NCC(=O)N[C@H](CCCCN)C(=O)N[C@H](Cc1c[nH]c2ccccc12)C(=O)N[C@H](CCCCN)C(=O)N[C@H](Cc1c[nH]c2ccccc12)C(=O)N[C@H](CCCCN)C(N)=O | 32 (≈ 53.9 µg/mL) | 64 (≈ 108 µg/mL) | 8 (≈ 13.5 µg/mL) | > 512 | 32 (≈ 53.9 µg/mL) | 100 | 4 (≈ 6.74 µg/mL) | 8 (≈ 13.5 µg/mL) | 64 (≈ 108 µg/mL) | 8 (≈ 13.5 µg/mL) | 128 (≈ 216 µg/mL) | 11.212 | 16 (≈ 27 µg/mL) | 2 (≈ 3.37 µg/mL) | 32 (≈ 53.9 µg/mL) | 100 | Activity [34]: 84.3%; Activity [35]: 80.2%; Activity [36]: 39.2%

Reference: ChEMBL document CHEMBL5543109, “Novel β-Hairpin Antimicrobial Peptide Containing the β-Turn Sequence of -NG- and the Tryptophan Zippers Facilitate Self-Assembly into Nanofibers, Exhibiting Excellent Antimicrobial Performance” (J Med Chem, 2024)
